Experiments:
[1] = target: T1, Amine oxidase [flavin-containing] A (Homo sapiens, UniProt P21397); assay: Inhibition of human recombinant MAO-A expressed in baculovirus infected insect cells using kynuramine as substrate after 20 mins by horseradish peroxidase-coupled assay
T1 sequence (P21397 whole entry): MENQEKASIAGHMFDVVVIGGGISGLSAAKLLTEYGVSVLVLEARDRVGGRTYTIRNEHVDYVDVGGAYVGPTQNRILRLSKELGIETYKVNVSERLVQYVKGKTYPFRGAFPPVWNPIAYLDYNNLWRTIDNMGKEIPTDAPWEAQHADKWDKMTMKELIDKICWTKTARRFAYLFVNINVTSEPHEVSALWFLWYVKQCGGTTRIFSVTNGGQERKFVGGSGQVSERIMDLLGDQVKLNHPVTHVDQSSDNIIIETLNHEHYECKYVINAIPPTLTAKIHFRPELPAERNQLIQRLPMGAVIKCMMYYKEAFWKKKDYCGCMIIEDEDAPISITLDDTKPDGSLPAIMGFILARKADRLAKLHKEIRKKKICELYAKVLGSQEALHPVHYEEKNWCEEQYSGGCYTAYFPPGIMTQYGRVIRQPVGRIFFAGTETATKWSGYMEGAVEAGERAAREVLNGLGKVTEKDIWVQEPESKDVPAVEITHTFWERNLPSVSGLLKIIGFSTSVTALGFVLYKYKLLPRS

[2] = target: T2, Amine oxidase [flavin-containing] B (Homo sapiens, UniProt P27338); assay: Inhibition of human recombinant MAO-B expressed in baculovirus infected insect cells using kynuramine as substrate after 20 mins by horseradish peroxidase-coupled assay
T2 sequence (P27338 whole entry): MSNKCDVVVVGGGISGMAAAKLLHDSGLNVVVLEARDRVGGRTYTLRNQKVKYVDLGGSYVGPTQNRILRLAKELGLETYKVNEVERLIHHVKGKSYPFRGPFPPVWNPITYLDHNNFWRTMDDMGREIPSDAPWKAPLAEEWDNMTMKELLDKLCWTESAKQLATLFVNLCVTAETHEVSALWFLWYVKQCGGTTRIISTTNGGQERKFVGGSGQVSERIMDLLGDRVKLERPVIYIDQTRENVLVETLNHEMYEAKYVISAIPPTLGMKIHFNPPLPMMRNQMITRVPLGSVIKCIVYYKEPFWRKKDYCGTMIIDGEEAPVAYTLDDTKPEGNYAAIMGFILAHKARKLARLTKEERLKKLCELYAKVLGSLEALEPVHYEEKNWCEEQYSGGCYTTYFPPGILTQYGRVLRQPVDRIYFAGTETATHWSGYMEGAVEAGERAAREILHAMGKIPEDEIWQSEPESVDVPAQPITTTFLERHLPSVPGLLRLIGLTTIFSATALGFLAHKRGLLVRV

Homo sapiens = species on record: Homo sapiens; assay: Selectivity index, ratio of IC50 for human recombinant MAO-A to IC50 for human recombinant MAO-B
[3] = target: T2, Amine oxidase [flavin-containing] B; assay: Reversible inhibition of human recombinant MAO-B expressed in baculovirus infected insect cells using kynuramine as substrate at 9.7 uM incubated up to 60 mins prior to substrate addition measured after 15 mins by fluorescence spectrophotometry; settings: 0.25 h
[4] = target: T1, Amine oxidase [flavin-containing] A; assay: Reversible inhibition of human recombinant MAO-A expressed in baculovirus infected insect cells using kynuramine as substrate at 9.7 uM incubated up to 60 mins prior to substrate addition measured after 15 mins by fluorescence spectrophotometry; settings: 0.25 h
[5] = target: T1, Amine oxidase [flavin-containing] A; assay: Inhibition of human recombinant MAO-A expressed in baculovirus infected insect cells using kynuramine as substrate after 20 mins by fluorescence spectrophotometry
[6] = target: T2, Amine oxidase [flavin-containing] B; assay: Inhibition of human recombinant MAO-B expressed in baculovirus infected insect cells using kynuramine as substrate after 20 mins by fluorescence spectrophotometry
[7] = target: T2, Amine oxidase [flavin-containing] B; assay: Competitive inhibition of human recombinant MAO-B expressed in baculovirus infected insect cells using kynuramine as substrate by Lineweaver-Burk plot analysis
[8] = target: T2, Amine oxidase [flavin-containing] B; assay: Reversible inhibition of human recombinant MAO-B expressed in baculovirus infected insect cells using kynuramine as substrate at 0.3 uM incubated up to 60 mins prior to substrate addition measured after 15 mins by fluorescence spectrophotometry; settings: 0.25 h
[9] = target: T1, Amine oxidase [flavin-containing] A; assay: Reversible inhibition of human recombinant MAO-A expressed in baculovirus infected insect cells using kynuramine as substrate at 0.3 uM incubated up to 60 mins prior to substrate addition measured after 15 mins by fluorescence spectrophotometry; settings: 0.25 h

SMILES | IC50 ([1]; read-out: IC50) | IC50 [2] | Ratio IC50 (Homo sapiens) | IC50 [5] | IC50 [6] | further results
Cn1c(=O)c2c(nc(COc3ccccc3)n2C)n(C)c1=O | 21.1 µM | 5.78 µM | 4 |  |  | 
Cn1c(=O)c2c(nc(COc3cccc(C(F)(F)F)c3)n2C)n(C)c1=O | 4.59 µM | 0.641 µM | 7 |  |  | inhibition (INH) [3]: Active; inhibition (INH) [4]: Active
Cn1c(=O)c2c(nc(CSc3ccc(Cl)cc3)n2C)n(C)c1=O |  |  | 5 | 31.6 µM | 6.91 µM | 
Cn1c(=O)c2c(nc(CCSc3cccc(Br)c3)n2C)n(C)c1=O | 372 µM | 64.1 µM | 6 |  |  | 
CCOc1cccc(SCc2nc3c(c(=O)n(C)c(=O)n3C)n2C)c1 |  |  | 2 | 44.7 µM | 18.4 µM | 
Cn1c(=O)c2c(nc(CSc3ccccc3)n2C)n(C)c1=O |  |  | 3 | 66.2 µM | 23.4 µM | 
Cn1c(=O)c2c(nc(CCSc3cccc(Cl)c3)n2C)n(C)c1=O |  | 5.67 µM |  |  |  | IC50 [1]: Not Active
Cn1c(=O)c2c(nc(CCSc3ccc(Cl)cc3)n2C)n(C)c1=O | 142 µM | 7.79 µM | 18 |  |  | 
Cn1c(=O)c2c(nc(CCSc3ccc(Br)cc3)n2C)n(C)c1=O | 117 µM | 124 µM | 0.9 |  |  | 
Cc1cccc(OCc2nc3c(c(=O)n(C)c(=O)n3C)n2C)c1 | 18.8 µM | 1.23 µM | 15 |  |  | 
Cn1c(=O)c2c(nc(CSc3cccc(Cl)c3)n2C)n(C)c1=O |  |  | 3 | 19.4 µM | 6.12 µM | 
Cn1c(=O)c2c(nc(COc3cccc(Cl)c3)n2C)n(C)c1=O |  | 0.334 µM |  |  |  | IC50 [1]: Not Active
Cn1c(=O)c2c(nc(COc3ccc(Br)cc3)n2C)n(C)c1=O | 10.7 µM | 0.189 µM | 57 |  |  | 
Cn1c(=O)c2c(nc(COc3cccc(Br)c3)n2C)n(C)c1=O | 34 µM | 0.148 µM | 230 |  |  | inhibition (INH) [7]: Active; inhibition (INH) [8]: Active; inhibition (INH) [9]: Active
Cn1c(=O)c2c(nc(COc3ccc(Cl)cc3)n2C)n(C)c1=O | 20.4 µM | 0.25 µM | 82 |  |  | 
COc1cccc(OCc2nc3c(c(=O)n(C)c(=O)n3C)n2C)c1 |  | 1.96 µM |  |  |  | IC50 [1]: Not Active
Cc1cccc(SCc2nc3c(c(=O)n(C)c(=O)n3C)n2C)c1 |  |  | 3 | 51.8 µM | 17.9 µM | 
Cn1c(=O)c2c(nc(COc3ccc(F)cc3)n2C)n(C)c1=O | 8.22 µM | 0.825 µM | 10 |  |  | 
Cn1c(=O)c2c(nc(CCSc3ccccc3)n2C)n(C)c1=O | 139 µM | 108 µM | 1.3 |  |  | 
Cn1c(=O)c2c(nc(COc3cccc(F)c3)n2C)n(C)c1=O | 13.2 µM | 1.61 µM | 8 |  |  | 
Cn1c(=O)c2c(nc(CSc3cccc(F)c3)n2C)n(C)c1=O |  |  | 2 | 50.1 µM | 22.3 µM | 
Cn1c(=O)c2c(nc(CSc3cccc(Br)c3)n2C)n(C)c1=O |  |  | 5 | 23.8 µM | 4.9 µM | 
Cn1c(=O)c2c(nc(CSc3ccc(Br)cc3)n2C)n(C)c1=O |  |  | 5 | 20.8 µM | 4.05 µM | 
COc1cccc(SCc2nc3c(c(=O)n(C)c(=O)n3C)n2C)c1 |  |  | 5 | 41.3 µM | 8.42 µM | 
